Key:
B16 melanoma = test: In vivo efficacy, B16 melanoma, compared to cisplatin; parameters: species or system mice; details: tumor s.c., drug i.p.
[1] = clinical, compared with parent complex cisplatin; cited from earlier work
[2] = tested on: L1210/0 murine leukemia cells; test: In vitro cytotoxicity, DDP-sensitive L1210/0 cells; assay type: cell-based; details: L1210/0, DDP-sensitive; 72 hours; read-out: In Vitro Activity in L1210 Leukemia, L1210/O (ID50)
Protocol: (§1) L1210 murine leukemia cells sensitive to the cytotoxicity of DDP (L1210/0) were cultured as a suspension in McCoy's 5A medium supplemented with 5% donor horse serum and glutamine. L1210 cells, 40-60 fold resistant to DDP (L1210/DDP) or 30-fold resistant to [Pt(R,R-dach)SO4 ] (L1210/dach), were cultured in McCoy's 5A medium supplemented with 10% fetal bovine serum and glutamine. Both cell lines were grown in a humidified atmosphere to 5% CO2 : 95% air at 37° C. For testing purposes, cells were diluted to 5×10^4 cells/ml and 1 ml of cell suspension aliquoted to disposable tissue culture tubes. Test compound was then added to the appropriate tubes (40 μl/tube) to attain final concentrations of 0.01, 0.1, 1.0 and 10 μg/ml. After 72 hours, the cell concentrations of all tubes were determined using a Coulter counter. The percent growth inhibition for each drug concentration was then calculated and the ID 50 (concentration of drug required to inhibit cell growth by 50%) was derived. The resistance factor for each compound was obtained by dividing the ID50 (L1210/DDP) by the ID50 (L1210/0).
(§2) In Vitro Activity (μM) of [PtCl(R2 SO)(damch)]NO3 in L1210

L1210/DDP cells = test: In vitro cytotoxicity, DDP-resistant L1210/DDP cells; assay type: cell-based, murine; details: for Resistance Factor (R), L1210/DDP: ID50 (L1210/DDP) divided by ID50 (L1210/0), 4320 min; for IC50: L1210/DDP, 40-60 fold resistant to DDP, 72 hours, read-out: In Vitro Activity in L1210 Leukemia, L1210/DDP (ID50)
Protocol: as §1, §2
(§3) ^a R = Resistance Factor which is defined as ID50 (Sensitive or […]

L1210 leukemia = test: In vivo efficacy, L1210 leukemia in mice; parameters: species or system murine (male BDR mice); details: days 1, 5 and 9
Protocol: (§4) Male BDR mice weighing 18-20 gm were purchased from the National Cancer Institute and housed in an environment having controlled humidity, temperature and photoperiods. The animals had food and water available ad libitum and wood chip bedding was changed daily. The L1210/0 and P388 murine leukemias were maintained as ascites tumors by weekly intraperitoneal (i.p.) inoculations of 10^6 cells For testing purposes, 10^6 tumor cells were inoculated i.p. (day 0) and mice were administered test compound i.p. on days 1, 5 and 9. Animals were observed daily for signs of toxicity and deaths and the day of death recorded for each animal that died during the 60 day observation period. The efficacy of each dose of compound tested was evaluated by calculating the percent increased life span determined by dividing the mean survival time of treated mice (using the day of death of only those animals that dies during the 60 day period) by the mean survival time of non-treated tumor bearing control animals (% T/C). […] An additional index of antitumor activity is the number of long term survivors defined as treated animals alive at the end of the study. The complexes tested and the results observed are summarized in Table 3 (L1210 leukemia) and in Table 4 (P338 leukemia). The data in Table 5 compares to the in vivo activity of [PtCl(n-Bu2 SO)](damch)NO3 with that of cisplatin.

L1210/dach cells = test: In vitro cytotoxicity, [Pt(R,R-dach)SO4]-resistant L1210/dach cells; assay type: cell-based, murine
Protocol: as §1, §2, §3

P388 leukemia = test: In vivo efficacy, P388 leukemia in mice; parameters: species or system murine (male BDR mice); details: days 1, 5 and 9
Protocol: as §4

[3] = dose 3 × 12.5, complex in saline

## N.N.[Cl][Pt][Cl] [Cisplatin, cis-[PtCl2 (NH3)2], reference compound]
B16 melanoma; dose 3 × 5
  % T/C, B16 melanoma: 170%

## N.N.O=C([O-])C1(C(=O)[O-])CCC1.[Pt+2] [carboplatin, [Pt(NH3)2 (CBDCA)]]
[1]
  nephrotoxicity: reduction in the severe nephrotoxicity of the parent complex

## [PtCl(R2 SO)(damch)]NO3, R = Me [reference compound]
[2]
  IC50: 1090 nM
L1210/DDP cells
  Resistance Factor (R), L1210/DDP: 3.58
  IC50: 3900 nM
L1210 leukemia; 3 × 100 mg/kg i.p.
  % T/C, L1210 leukemia: 152%

## [PtCl(R2 SO)(damch)]NO3, R = n-Pr
[2]
  IC50: 620 nM
L1210/DDP cells
  Resistance Factor (R), L1210/DDP: 4.70
  IC50: 2920 nM
L1210 leukemia; 3 × 12.5 mg/kg i.p.
  % T/C, L1210 leukemia: 162%
L1210 leukemia; 3 × 25 mg/kg i.p.
  % T/C, L1210 leukemia: 185%

## [PtCl(damch)(n-Bu2 SO)]^+ NO3 ^-
[2]
  IC50: 390 nM
L1210/DDP cells
  Resistance Factor (R), L1210/DDP: 6.05
  IC50: 2360 nM
L1210/dach cells; L1210/dach, 30-fold resistant to [Pt(R,R-dach)SO4], 72 hours, read-out: In Vitro Activity in L1210 Leukemia, L1210/dach (ID50)
  IC50: 5360 nM
L1210/dach cells; resistance factor for L1210/dach versus L1210/0, 4320 min
  Resistance Factor (R), L1210/dach: 41.23
L1210 leukemia; 3 × 25 mg/kg (D5W) i.p.
  % T/C, L1210 leukemia: 260%
P388 leukemia; dose 3 × 6.25, i.p.
  % T/C, P388 leukemia: 167%
P388 leukemia; dose 3 × 12.5, i.p.
  % T/C, P388 leukemia: 146%
P388 leukemia; dose 3 × 25 (D5W), i.p.
  % T/C, P388 leukemia: 195%
P388 leukemia; dose 3 × 25, i.p.
  % T/C, P388 leukemia: 189%
B16 melanoma; dose 3 × 6.25, complex in saline
  % T/C, B16 melanoma: 154%
B16 melanoma; [3]
  % T/C, B16 melanoma: 136%
  figure in parentheses after % T/C (presumably long term survivors), B16 melanoma: 1/6
B16 melanoma; dose 3 × 25, complex in saline
  % T/C, B16 melanoma: 188%
